The source of these data is patent US12570599B2, “Process for preparing acyl-capped 3-hydroxycarboxylic acids and their salts and esters” (KetoLipix Therapeutics GmbH, priority 2019, dated 2026).

A short description of data set [1]: Cleavage experiments in FaSSGF medium simulating the stomach, with or without pancreatin (Panzytrat). Type of data set: in vitro ADME. Conditions: in the presence or absence of pancreatin. From the text: (§1) Esters tested: • 3-Acetylaceto-BHB ethyl ester • 3-Acetylaceto-BHB decyl ester • 3-Acetylaceto-BHB oleyl ester • 3-Acetylaceto-BHB cetyl ester • 3-Acetylaceto-BHB-margaryl ester • 3-Acetylaceto-BHB stearyl ester • 3-Acetylaceto-BHB behenyl ester • 3-Acetylaceto-BHB melissyl ester • 3-Acetylaceto-BHB palmitoyl ester • 3-Acetylaceto-BHB linoleyl ester For the cleavage experiments under near-body conditions two media are investigated: • FaSSGF, which simulates the stomach • FaSSIF, which simulates the intestinal tract Both media are from the company Biorelevant®, Ltd. in Great Britain. In addition, in some experiments porcine pancreas is added (Panzytrat® 40,000, Fa. Allergan).
(§2) Under FaSSIF conditions, a lower conversion using Panzytrat® takes place.

The subject of data set [2] is pancreatin (Panzytrat 40,000). The data set can be described thus: Cleavage experiments with pancreatin in water, followed by acid number. The data set is classed as in vitro ADME, porcine. The note with it: each ester in its pure form, 50° C. As to the method:
2 g of each of the 3-acetoacetate-BHB ethyl esters prepared as described above and the 3-acetoacetate-BHB fatty alcohol esters prepared as described above are dissolved in 50 g water and 0.5 g (1% by weight) pancreatin is added. The pancreatin is used in the form of the commercially available product Panzytrat® 40,000 from the Allergan company. The whole mixture is stirred on a hot plate at 50° C.; the course of the reaction is determined and monitored by continuously recording the acid number over time. […] This is confirmed by corresponding analytics. The experiment proves that both the 3-acetylaceto-BHB ethyl ester according to the invention and the functionalized derivatives (i. e. 3-acetylaceto-BHB fatty alcohol esters) are suitable physiological precursors for 3-hydroxybutyric acid for the corresponding keto body therapies. The experiments are repeated and verified using each ester in its pure form.

Data set [3] is described as follows: Cleavage experiments in FaSSIF medium simulating the intestinal tract, with or without pancreatin (Panzytrat). The data set is classed as in vitro ADME. The note with it: in the presence or absence of pancreatin.
Description: as §1, §2

The conditions of data set [4]: several grams taken, patients; cited from earlier work.

With `CCOC(=O)CC(C)OC(=O)CC(C)=O` (stereo not shown) [3-acetylaceto-BHB ethyl ester, 3-acetylacetobutyric acid ethyl ester], the “cleavage in gastric medium” value in data set [1] was “cleavage to 3-BHB in the free form”. Also, in data set [2], the cleavage by pancreatin entry is given as “cleaved by pancreatin”. Moreover, the “cleavage in intestinal medium” value in data set [3] is recorded as “cleavage to 3-BHB in the free form”.
On to `CC(O)CC(=O)O` (stereo not shown) [3-hydroxybutyric acid], for which the duration of ketosis result in data set [4] is reported as “three to four”.
